# Source: patent publication US11414424B2, “Cardiac sarcomere inhibitors” (Cytokinetics, Inc., priority 2018, dated 2022)
# Tested on: bovine cardiac myofibrils
# Test: Myofibril assay: PK/LDH-coupled steady-state ATPase activity of skinned bovine cardiac myofibrils
# Assay type: biochemical
# Details: Ca2+ activating to 75% of maximal rate
# Method in brief: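 Steady-state ATPase of detergent-skinned bovine left-ventricular myofibrils (1 mg/mL), PK/LDH-coupled NADH read at 340 nm, in PIPES/MgCl2 buffer pH 6.8 with 50 μM ATP, 0.6 mM EGTA and CaCl2 set for 50% or 75% activation. Inhibition of activity measured.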
row,Compound,CDMF75 IC15 [µM]
1,"CC(=O)N1CC2(C1)C(=O)N(c1ncc(Cl)cc1F)CC(=O)N2[C@@H](C)c1ccc(Cl)cc1 [Compound 556, (S)-2-acetyl-8-(5-chloro-3-fluoropyridin-2-yl)-5-(1-(4-chlorophenyl)ethyl)-2,5,8-triazaspiro[3.5]nonane-6,9-dione]",2.7
2,"CC(C)N1CC(=O)N(Cc2cccc(Cl)c2)C(c2ccc(Cl)cc2)C1=O (centres unmarked) [Compound 298, 4-(3-chlorobenzyl)-3-(4-chlorophenyl)-1-isopropylpiperazine-2,5-dione]",5.4
3,"CC(C)N1CC(=O)N(Cc2ccc(Cl)cc2)C2(CCN(C(=O)Nc3ccccn3)C2)C1=O (centres unmarked) [Compound 385, 6-(4-chlorobenzyl)-9-isopropyl-7,10-dioxo-N-(pyridin-2-yl)-2,6,9-triazaspiro[4.5]decane-2-carboxamide]",>39
4,"Cc1ccccc1CN1C(=O)CN(C(C)C)C(=O)C1c1ccc(Cl)cc1 (centres unmarked) [Compound 300, 3-(4-chlorophenyl)-1-isopropyl-4-(2-methylbenzyl)piperazine-2,5-dione]",28.3
5,"CC(C)N1CC(=O)N(Cc2ccc(Cl)cc2)C2(CN(c3ccn(C)c(=O)c3)C2)C1=O [Compound 42, 5-(4-chlorobenzyl)-8-isopropyl-2-(1-methyl-2-oxo-1,2-dihydropyridin-4-yl)-2,5,8-triazaspiro-[3.5]nonane-6,9-dione]",5.4
6,"CC(C)N1CC(=O)N(Cc2ccc(Cl)cc2)C2(CN(c3nc(C(N)=O)cs3)C2)C1=O [Compound 40, 2-(5-(4-chlorobenzyl)-8-isopropyl-6,9-dioxo-2,5,8-triazaspiro[3.5]nonan-2-yl)thiazole-4-carboxamide]",7.2
7,"CC(C)N1CC(=O)N(C(C)c2ccc(C(F)(F)F)cc2)C2(CN(c3ccccn3)C2)C1=O (centres unmarked) [Compound 138, 8-isopropyl-2-(pyridin-2-yl)-5-(1-(4-(trifluoromethyl)-phenyl)ethyl)-2,5,8-triazaspiro[3.5]nonane-6,9-dione]",7.0
8,"CC(=O)NCC1(C)C(=O)N(c2ncc(Cl)cc2F)CC(=O)N1Cc1ccc(Cl)cc1 (centres unmarked) [Compound 631, N-((4-(5-chloro-3-fluoro-pyridin-2-yl)-1-(4-chloro-benzyl)-2-methyl-3,6-dioxopiperazin-2-yl)-methyl)acetamide]",17.3
9,"Cc1cc(N2CC3(C2)C(=O)N(C(C)C)CC(=O)N3Cc2ccc(C(F)(F)F)cc2)ccn1 [Compound 31, 8-isopropyl-2-(2-methylpyridin-4-yl)-5-(4-(trifluoromethyl)benzyl)-2,5,8-triazaspiro[3.5]-nonane-6,9-dione]",2.7
10,"C=C(C)c1ccc(N2CC(=O)N(Cc3ccc(C(F)(F)F)cc3)C3(CN(C(=O)NC)C3)C2=O)cc1 [Compound 161, N-methyl-6,9-dioxo-8-(4-(prop-1-en-2-yl)phenyl)-5-(4-(trifluoromethyl)benzyl)-2,5,8-triazaspiro[3.5]-nonane-2-carboxamide]",4.7
11,"CC(C)N1CC(=O)N(Cc2ccc(C(F)(F)F)cc2)C2(CCN(C(=O)NC3CC3)C2)C1=O (centres unmarked) [Compound 118, N-cyclopropyl-9-isopropyl-7,10-dioxo-6-(4-(trifluoromethyl)benzyl)-2,6,9-triazaspiro[4.5]decane-2-carboxamide]",14.0
12,"CC(C)N1CC(=O)N(Cc2ccc(Cl)cc2)C2(CN(c3ccc(C(F)(F)F)nn3)C2)C1=O [Compound 53, 5-(4-chlorobenzyl)-8-isopropyl-2-(6-(trifluoromethyl)pyridazin-3-yl)-2,5,8-triazaspiro-[3.5]nonane-6,9-dione]",14.7
13,"N#Cc1ccc(N2CC(=O)N(Cc3ccc(C(F)(F)F)cc3)C3(CN(C(=O)C4CCC4)C3)C2=O)c(F)c1 [Compound 180, 4-(2-(cyclobutanecarbonyl)-6,9-dioxo-5-(4-(trifluoromethyl)benzyl)-2,5,8-triazaspiro[3.5]nonan-8-yl)-3-fluorobenzonitrile]",1.6
14,"Cc1ccc(CN2C(=O)CN(c3ncc(Cl)cc3F)C(=O)C23CC2(CN(C=O)C2)C3)cc1 [Compound 830, 10-(5-chloro-3-fluoro-pyridin-2-yl)-7-(4-methyl-benzyl)-8,11-dioxo-2,7,10-triazadispiro[3.1.56.14]-dodecane-2-carbaldehyde]",1.75
15,"CC(C)N1CC(=O)N(Cc2ccc(Cl)cc2)C2(CN(c3cncnc3)C2)C1=O [Compound 25, 5-(4-chlorobenzyl)-8-isopropyl-2-(pyrimidin-5-yl)-2,5,8-triazaspiro-[3.5]nonane-6,9-dione]",8.8
16,"CC(C)N1CC(=O)N(Cc2ccc(Cl)cc2)C2(CCN(c3cc[nH]c(=O)c3)C2)C1=O (centres unmarked) [Compound 81, 6-(4-chlorobenzyl)-9-isopropyl-2-(2-oxo-1,2-dihydropyridin-4-yl)-2,6,9-triazaspiro[4.5]decane-7,10-dione]",1.4
17,"CC(C)N1CC(=O)N(Cc2ccc(Cl)cc2)C2(CN(c3ncccn3)C2)C1=O [Compound 11, 5-(4-chlorobenzyl)-8-isopropyl-2-(pyrimidin-2-yl)-2,5,8-triazaspiro-[3.5]nonane-6,9-dione]",17.4
18,"CNC(=O)N1CC2(C1)C(=O)N(c1ccc3oc(=O)ccc3c1)CC(=O)N2Cc1ccc(C2(C(F)(F)F)N=N2)cc1 [Compound 181, N-methyl-6,9-dioxo-8-(2-oxo-2H-chromen-6-yl)-5-(4-(3-(trifluoromethyl)-3H-diazirin-3-yl)benzyl)-2,5,8-triazaspiro[3.5]-nonane-2-carboxamide]",6.2
19,"CC(=O)N1CC2(C1)C(=O)N(c1ccc(Cl)cc1F)CC(=O)N2[C@@H](C)c1ccc(C(F)(F)F)cc1 [Compound 340, (S)-2-acetyl-8-(4-chloro-2-fluorophenyl)-5-(1-(4-(trifluoromethyl)phenyl)-ethyl)-2,5,8-triazaspiro-[3.5]nonane-6,9-dione]",0.7
20,"CC(C)N1CC(=O)N(Cc2ccc(Cl)cc2)C2(CCN(c3ccn(C)c(=O)c3)C2)C1=O (centres unmarked) [Compound 80, 6-(4-chlorobenzyl)-9-isopropyl-2-(1-methyl-2-oxo-1,2-dihydropyridin-4-yl)-2,6,9-triazaspiro-[4.5]decane-7,10-dione]",1.7
21,"COc1ccc(N2CC3(C2)C(=O)N(C(C)C)CC(=O)N3Cc2ccc(Cl)cc2)nn1 [Compound 51, 5-(4-chlorobenzyl)-8-isopropyl-2-(6-methoxypyridazin-3-yl)-2,5,8-triazaspiro-[3.5]nonane-6,9-dione]",5.7

# Other lines, results leading:
row,CDMF75 IC15 [µM],Compound
1,0.3,"CNC(=O)N1CC2(C1)C(=O)N(c1ccc(Cl)cc1F)CC(=O)N2Cc1ccc(C(F)(F)F)cc1 [Compound 168, 8-(4-chloro-2-fluoro-phenyl)-N-methyl-6,9-dioxo-5-(4-(trifluoro-methyl)benzyl)-2,5,8-triazaspiro[3.5]nonane-2-carboxamide]"
2,7.9,"COc1cnc(N2CC(=O)N(Cc3ccc(Cl)cc3)C(C3COC3)C2=O)c(F)c1 (centres unmarked) [Compound 769, 4-(4-chlorobenzyl)-1-(3-fluoro-5-methoxypyridin-2-yl)-3-(oxetan-3-yl)-piperazine-2,5-dione]"
3,2.3,"Cc1ccc(CN2C(=O)CN(c3ncc(Cl)cc3F)C(=O)C2C2COC2)cc1 (centres unmarked) [Compound 666, 1-(5-chloro-3-fluoropyridin-2-yl)-4-(4-methylbenzyl)-3-(oxetan-3-yl)piperazine-2,5-dione]"
4,5.8,"O=C1C(C2COC2)N(Cc2ccc(C(F)(F)F)cc2)C(=O)CN1c1ncc(Cl)cc1F (single isomer, unassigned) [Compound 861B, 1-(5-chloro-3-fluoropyridin-2-yl)-3-(oxetan-3-yl)-4-(4-(trifluoromethyl)benzyl)piperazine-2,5-dione]"
5,5.7,"O=C1C(C23CC(O)(C2)C3)N(Cc2ccc(C(F)F)cc2)C(=O)CN1c1ncc(Cl)cc1F (centres unmarked) [Compound 849, 1-(5-chloro-3-fluoropyridin-2-yl)-4-(4-(difluoromethyl)-benzyl)-3-(3-hydroxy-bicyclo[1.1.1]pentan-1-yl)piperazine-2,5-dione]"
6,7.1,"CNC(=O)N1CC2(C1)C(=O)N(c1ccc(Cl)cn1)CC(=O)N2Cc1ccc(C(F)(F)F)cc1 [Compound 156, 8-(5-chloropyridin-2-yl)-N-methyl-6,9-dioxo-5-(4-(trifluoromethyl)benzyl)-2,5,8-triazaspiro[3.5]-nonane-2-carboxamide]"
7,7.0,"Cc1cc(Cl)cnc1N1CC(=O)N(Cc2ccc(Cl)cc2)C(CC2COC2)C1=O (centres unmarked) [Compound 655, 1-(5-chloro-3-methylpyridin-2-yl)-4-(4-chlorobenzyl)-3-(oxetan-3-ylmethyl)-piperazine-2,5-dione]"
8,0.3,"CCOC(=O)C1CC2(C1)C(=O)N(c1ncc(Cl)cc1F)CC(=O)N2Cc1ccc(C(F)(F)F)cc1 (single isomer, unassigned) [Compound 859B, ethyl 8-(5-chloro-3-fluoropyridin-2-yl)-6,9-dioxo-5-(4-(trifluoromethyl)benzyl)-5,8-diazaspiro[3.5]nonane-2-carboxylate]"
9,19.9,"CC(=O)N1CC(C2C(=O)N(c3ncc(Cl)cc3C)CC(=O)N2Cc2ccc(C(F)(F)F)cc2)C1 (centres unmarked) [Compound 653, 3-(1-acetylazetidin-3-yl)-1-(5-chloro-3-methylpyridin-2-yl)-4-(4-(trifluoromethyl)-benzyl)piperazine-2,5-dione]"
10,1.0,"O=C1[C@H](C2CC2)N(Cc2ccc(C(F)(F)F)cc2)C(=O)CN1c1ncc(Cl)cc1F [Compound 750, (S)-1-(5-chloro-3-fluoropyridin-2-yl)-3-cyclopropyl-4-(4-(trifluoromethyl)benzyl)piperazine-2,5-dione]"
11,8.4,"CC(C)N1CC(=O)N(Cc2ccc(Cl)cc2)C(c2ccc(C(F)(F)F)cc2)C1=O (centres unmarked) [Compound 314, 4-(4-chlorobenzyl)-1-isopropyl-3-(4-(trifluoro-methyl)phenyl)piperazine-2,5-dione]"
